Test results as given in patent publication US20210169078A1, “AGENT FOR SUPPRESSING MICROBIAL GROWTH, METHOD FOR PREVENTING MICROBIAL CONTAMINATION, AND BEVERAGE” (priority 2018, published 2021).
Values after ≈ are worked out from the molar mass of the structure shown.

Key:
Type in all cases: cell-based
[1] = system: Bacillus welchii (Clostridium perfringens JCM 1290); test: organism not typed; conditions: 24 h
[2] = system: Clostridium difficile (spores) (Clostridium difficile ATCC 9689); test: Agar plate dilution MIC test; conditions: Clostridioides difficile, ATCC9689; Clostridium difficile ATCC 9689 (spores); taurocholic acid-containing BHIA medium, 37 ± 1 °C, 18 to 20 hours, anaerobic
[3] = system: Staphylococcus aureus (Staphylococcus aureus subsp. aureus NBRC 12732); test: Agar plate dilution MIC test; conditions: NBRC12732, Mueller Hinton Agar, 37 ± 1 °C, 18 to 20 hours, aerobic
[4] = system: Bacillus cereus (Bacillus cereus IFO 13494); test: Agar plate dilution MIC test; conditions: IFO13494, Mueller Hinton Agar, 37 ± 1 °C, 18 to 20 hours, aerobic
[5] = system: Thermo-Acidophilic Bacilli (Alicyclobacillus acidoterrestris ATCC 49025); test: Agar plate dilution MIC test; conditions: ATCC49025, 120 h, YSG agar medium, 50 ± 1 °C, 5 days, aerobic

Q: With `COc1cc(O)c(CC=C(C)C)c2c1C(=O)CC(c1ccc(O)cc1)O2` (centres unmarked) [Isoxanthohumol] as the compound, how does the MIC [1] read?
A: Its MIC is 50 µg/mL (≈ 141 µM).

Q: What about the MIC [2] of the same compound?
A: Its MIC is 50 µg/mL (≈ 141 µM).

Q: And the MIC [3]?
A: The MIC was 50 µg/mL (≈ 141 µM).

Q: And the MIC [4]?
A: Its MIC is 50 µg/mL (≈ 141 µM).

Q: And the MIC [5]?
A: The MIC was 25 µg/mL (≈ 70.5 µM).
